First: Nc1nc2ccccc2n1-c1ccccc1
Second: Cc1nc2cc(C(=O)O)ccc2n1-c1ccccc1
The melting point of the first is lower: 148 to 150 °C for the first, 210 to 212 °C for the second.

CCOC(=O)c1csc(NC)n1 and COC(=O)C(Cc1c[nH]cn1)NC(C)=O (stereo unspecified) cannot be ordered by melting point: 115 to 117 °C for the first, 116 to 118 °C for the second.

First: Cc1ncsc1C(=O)NC1CCNCC1
Second: O=C(Nc1nncs1)C1CCCNC1 (stereo unspecified)
The melting point of the first is lower: 136 to 138 °C for the first, 186 to 188 °C for the second.

CCOC(=O)c1sc(-c2ccc(Cl)cc2Cl)cc1N and Cc1cccc(Cl)c1OCC(=O)O cannot be ordered by melting point: 100 to 102 °C for the first, 99 to 101 °C for the second.

Compared with O=C(O)c1ccc(Cl)c(N2CCCC2=O)c1, O=C(O)c1ccc(Cl)c(I)c1 is lower in melting point: 288 to 290 °C for the first, 212 to 214 °C for the second.

First: Nc1ccc(-n2cc(S(N)(=O)=O)cn2)nc1
Second: Nc1cnn(-c2nccs2)c1
The melting point of the first is higher: 218 to 220 °C for the first, 89 to 91 °C for the second.

First: NC(=S)CN1C(=O)c2ccccc2S1(=O)=O
Second: OCc1nc2ccccc2n1C(F)F
The melting point of the first is higher: 160 to 162 °C for the first, 150 to 152 °C for the second.

First: COc1ccc(S(=O)(=O)Cl)cc1C1(C)NC(=O)NC1=O (stereo unspecified)
Second: COc1ccc(Br)cc1CC(=O)O
The melting point of the first is higher: 214 to 216 °C for the first, 132 to 134 °C for the second.

First: c1ccc(COc2cccc3cn[nH]c23)cc1
Second: O=C(Cc1ccc(Cl)cc1)c1ccccc1
The melting point of the first is lower: 126 to 128 °C for the first, 131 to 135 °C for the second.

First: Cn1c(S)nnc1CC1CCS(=O)(=O)C1 (stereo unspecified)
Second: CCn1c(S)nnc1-c1ccc(C(C)(C)C)cc1
The melting point of the first is higher: 237 to 239 °C for the first, 130 to 132 °C for the second.

First: CC(=O)Nc1ccc(N2C(=O)c3ccc(C(=O)O)cc3C2=O)cc1
Second: C/C(=N\O)c1cccc(NC(=O)c2ccc(F)cc2)c1
The melting point of the first is higher: 379 to 381 °C for the first, 196 to 198 °C for the second.

First: Clc1nc(Br)n[nH]1
Second: Oc1ncnc(Cl)c1I
The melting point of the first is lower: 178 to 180 °C for the first, 274 to 276 °C for the second.

First: CN1C(=O)CCC(C(N)=O)C1c1cccs1 (stereo unspecified)
Second: CC1CCN(C(=O)c2cccnc2Cl)CC1
The melting point of the first is higher: 179 to 181 °C for the first, 96 to 98 °C for the second.

Compared with CS(=O)(=O)c1cccc(C(=O)c2ccc(F)c(F)c2)c1, COc1ccc(C(C)=O)cc1-c1cccc(C(F)(F)F)c1 is lower in melting point: 122 to 124 °C for the first, 76 to 78 °C for the second.

First: Cc1ccc(N2CCCC2)c(C#N)c1
Second: Cc1ccc(C2CNCCO2)c(C)c1 (stereo unspecified)
The melting point of the first is lower: 42 to 44 °C for the first, 49 to 51 °C for the second.

First: NC1(C(=O)O)Cc2ccccc2C1
Second: O=C(O)CC(C(=O)O)c1ccccc1F (stereo unspecified)
The melting point of the first is higher: 254 to 256 °C for the first, 169 to 171 °C for the second.

First: O=C1OC(=O)c2cc([N+](=O)[O-])cc3cc([N+](=O)[O-])cc1c23
Second: CN(C)S(=O)(=O)c1ccc2c(c1)nc(CCC(=O)O)n2C
The melting point of the first is higher: 216 to 218 °C for the first, 205 to 209 °C for the second.

First: Nc1ccc(C(=O)NC2CCCCC2)cc1
Second: COCCNS(=O)(=O)c1ccc(N)cc1
The melting point of the first is higher: 175 to 177 °C for the first, 83 to 85 °C for the second.

First: CC(NC(N)=O)C(=O)O (stereo unspecified)
Second: COC(=O)C(=O)CC(=O)c1ccccc1F
The melting point of the first is higher: 171 to 173 °C for the first, 81 to 83 °C for the second.

Compared with Cc1cccc(OCCCC(=O)O)c1, C#CCNC(=O)c1cccc(C#N)c1 is higher in melting point: 55 to 57 °C for the first, 132 to 134 °C for the second.

Compared with O=C(O)CN1CCCOC1=O, CC1CCc2c(sc3nc(CCC(=O)O)[nH]c(=O)c23)C1 (stereo unspecified) is higher in melting point: 172 to 174 °C for the first, 259 to 261 °C for the second.

First: O=C(c1ccc(Br)cc1)c1ccco1
Second: O=C(CC(F)(F)F)c1ccc(Br)cc1
The melting point of the first is lower: 63 to 65 °C for the first, 73 to 75 °C for the second.

First: Cc1nn2c(C=O)c(C(C)C)nc2s1
Second: Cc1cc(C(=O)CCl)c(C)n1C(C)C
The melting point of the first is lower: 40 to 42 °C for the first, 45 to 47 °C for the second.

Compared with NNC(=O)NCc1ccc(Cl)cc1, O=C(N=C=S)c1ccc(Cl)c(Cl)c1 is lower in melting point: 163 to 165 °C for the first, 49 to 51 °C for the second.

Compared with Cn1ccnc1C(O)(c1nccn1C)C1CC1, CC(C)(C)Sc1ccc(C(N)=S)cn1 is higher in melting point: 166 to 168 °C for the first, 178 to 180 °C for the second.

First: FC(F)(F)Cn1nnnc1S
Second: CNC(=O)OCC(F)(F)F
The melting point of the first is higher: 122 to 124 °C for the first, 35 to 37 °C for the second.

Compared with COc1ccc(Nc2ccccc2C(=O)O)cc1, Fc1ccccc1-c1c[nH]c(C2CCCN2)n1 (stereo unspecified) is lower in melting point: 184 to 186 °C for the first, 111 to 113 °C for the second.

First: N#Cc1ccccc1S(N)(=O)=O
Second: CCCc1cc(Cl)n2nc(C(=O)OC)nc2n1
The melting point of the first is higher: 306 to 308 °C for the first, 117 to 119 °C for the second.
